In publication PMC11960969, “Mdga2 deficiency leads to an aberrant activation of BDNF/TrkB signaling that underlies autism-relevant synaptic and behavioral changes in mice” (PLOS Biology, 2025):
“And” between values parts separate entries of the source, which are not always exact repeats. Equal values may be shown once. No end group written: not given here.

Assays:
mice [1] = experiment: Open field test; assay type: in vivo, mouse; set-up: OFT (open field test), Figure S4C: unit not given here; conditions: individual animals;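 note: values are total travel distance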
Protocol: (§1) Six- to eight-week-old male mice were subjected to various behavioral tests. Mice were allowed to acclimatize in the testing room for 1 h prior to each test. Data were recorded and analyzed using Smart 3.0 video tracking system (Panlab, Harvard Apparatus).
Mice were gently placed in the center of an open field apparatus (40 × 40 × 40 cm), and allowed for a 10-min period of free movement. Total distance traveled and time spent in center were analyzed.

mice [2] = experiment: Self-grooming test; assay type: in vivo, mouse; set-up: Repetitive behaviors / Repetitive behaviors, Figure S4E: unit not given here; conditions: for Repetitive behaviors: Figure 5D; for Repetitive behaviors / Repetitive behaviors, Figure S4E: Test2, individual animals
Protocol: as §1
Tested mice were placed individually in a clean cage with fresh bedding. After 5 min of habituation, the spontaneous behaviors of mice were recorded for 30 min and their self-grooming behavior was analyzed.

mice [3] = experiment: Novel location recognition (NLR) test; assay type: in vivo, mouse; set-up: key to NLR (novel location recognition), Figure S4D: discrimination index = (T novel − T familiar)/(T novel + T familiar); conditions: for NLR (novel location recognition), Figure S4D: individual animals
Protocol: as §1
This test consists of habituation, training, and testing phases. Mice were first put into the open field apparatus described above for 10 min habituation. During the training phase, mice were allowed to freely explore two identical objects placed near two opposite corners of the open field arena for 8 min. Twenty-four hour later, one of the objects was moved to be close to a third corner (N: Novel location) while the other one was kept in the same spatial position (F: Familiar location). Mice were then tested for their exploration behavior with these objects for 8 min. The discrimination index (T(N − F)/T(N + F): time spent exploring the novel location minus time spent in familiar location over time spent to both novel and familiar location) was calculated to assess the recognition memory of mice.

mice [4] = experiment: Three-chamber test (sociability and social novelty); assay type: in vivo, mouse; set-up: key to Sociability, Figure S4G: sociability index = (T_S1 - T_E)/(T_S1 + T_E), sniffing time; key to Social novelty, Figure S4G: social novelty index = (T_S2 - T_S1)/(T_S2 + T_S1), sniffing time; conditions: for Sociability, Figure S4G / Social novelty, Figure S4G: individual animals
Protocol: as §1
This test was performed as described previously with minor modifications. The apparatus (60 W × 40 D × 22 H cm) has two transparent partitions separating the left, the middle, and the right chambers (20 × 40 cm each), and each partition has a small opening (5 × 5 cm) for access to each chamber. A fixed wire cylinder (8.5 cm diameter) was placed in each of the left and the right chambers. This test consisted of three phases: habituation, sociability test, and social novelty test. During habituation, both left and right cylinders were empty, and tested mice were placed in the center and allowed to explore freely for 10 min. During the sociability test, a gender-matched strange mouse (S1) was enclosed in one empty cylinder, and mice were allowed to freely explore for 10 min. Their time spent sniffing S1 or the other empty cylinder (E) was measured and the sociability preference index (T(S1 − -E)/T(S1 + E): time spent sniffing S1 minus time spent sniffing E over time spent sniffing both S1 and E) was calculated for comparison. During the social novelty test, another gender-matched unfamiliar mouse (S2) was placed into the empty cylinder and mice were allowed to freely explore for another 10 min. Their time spent sniffing S1 or S2 was measured and the social novelty preference index (T(S2 − S1)/T(S2 + S1): time spent sniffing S2 minus time spent sniffing S1 over time spent sniffing both S2 and S1) was calculated for comparison.

mice [5] = experiment: Social affiliation test; assay type: in vivo, mouse; conditions: Mdga2+/- mice, 1 mg/kg i.p., 60 min, n = 10
Protocol: as §1
The test procedure was similar to that described previously. Briefly, a cylinder (8.5 cm in diameter) with a gender-matched reference mouse confined was placed at a specific location in an open field (40 cm in diameter). Tested mice were allowed to move freely in the open field for 7 min and their sniffing time with the reference mice was analyzed.

human TrkB protein = experiment: GST pull-down of purified human TrkB with MDGA2 fragments; assay type: binding; conditions: in vitro, GST-tagged fragments
Protocol: Full-length human TrkB or MDGA2 cDNA was cloned into the pcDNA6-His vector. TrkB and MDGA2 proteins were expressed in HEK293T cells and then purified using a His-tag Protein Purification Kit (Beyotime, Cat# P2229S).
GST pull-down: GST-fused MDGA2 fragments (L1: MDGA2 aa 746−786; L2: MDGA2 aa 787−833) were expressed in bacteria and purified using Glutathione Sepharose 4B (GE Healthcare, Cat# 17-0756-01). Purified human TrkB protein was incubated with GST-fused MDGA2-L1, MDGA2-L2, or GST proteins and then pulled down with Glutathione Sepharose 4B.

TrkB signaling pathway = experiment: Immunoblotting of TrkB signaling in hippocampal neurons treated with NLGN1 siRNA; assay type: cell-based, mouse; conditions: NLGN1 knockdown in MDGA2-deficient hippocampal neurons, n = 4
Excerpt: NLGN1-targeting siRNA and scrambled control siRNA were synthesized by GenePharma (Shanghai, China). The sequences were as follows: NLGN1 siRNA sense: 5′-[…]-[…]-3′, NLGN1 siRNA antisense: 5′-[…]-3′. Scrambled control siRNA sense: 5′-[…]-3′, Scrambled control siRNA antisense: 5′-[…]-3′
Plasmids were transfected into HEK293T, SH-SY5Y, and HeLa cells using Turbofect transfection reagent (ThermoFisher), following the manufacturer’s instructions. Primary neurons were transfected with plasmids using Lipofectamine LTX (ThermoFisher, Cat# 15338100) or EntransterTM-H4000 transfection reagent (Engreen Bio-system, Cat# 4000-6), and with siRNAs using Lipofectamine RNAiMAX (ThermoFisher, Cat# 13778100), following manufacturers’ protocols. The transfection efficiency of both Lipofectamine LTX and EntransterTM-H4000 exceeded 50%. […]
Supplementary file pbio.3003047.s003.tif: S3 Fig MDGA2 competes with brain-derived neurotrophic factor (BDNF) for tyrosine kinase B (TrkB) binding. […] The pTyr levels were quantified by densitometry, normalized to total TrkB levels, and then compared to those of WT littermates. n = 4 per group. […] Immunoprecipitated BDNF levels in Het samples were quantified by densitometry, normalized to input levels, and compared to WT controls (set to one arbitrary units). n = 4 per group. […]

[6] = Mdga2+/- mice, 1 mg/kg i.p., 60 min, n = 10

O=C(Nc1ccccc1C(=O)NC1CCCCNC1=O)c1cc2ccccc2s1 (stereo not shown) [ANA12]
OFT (open field test), Figure S4C (mice [1]; Het+ANA12, Test1): 39.1 and 38.5 and 30.9 and 34.7 and 41.8 and 45.2 and 48.5 and 34.6 and 26.5
OFT (open field test), Figure S4C (mice [1]; Het+ANA12, Test2): 19.1 and 38.5 and 35 and 43.1 and 30.9 and 22 and 39 and 30.4 and 45.6 and 31.5 and 29.6 and 25.1 and 49.6 and 27.8 and 28.2
OFT (open field test), Figure S4C (mice [1]; WT+ANA12, Test1): 46.5 and 20.6 and 31.2 and 41.8 and 24 and 27.1 and 44.6 and 35 and 26.6 and 21.8 and 34.8 and 37 and 41.1 and 19.1 and 26.9
OFT (open field test), Figure S4C (mice [1]; WT+ANA12, Test2): 43.3 and 20.5 and 26 and 46 and 26.1 and 37.1 and 47.7 and 21.2 and 24.6 and 27.2 and 22 and 34.1 and 17 and 29.8 and 32.4
Repetitive behaviors (mice [2]; Het+ANA12): 19 and 17 and 36 and 33 and 26 and 14 and 10 and 20 and 12 and 38 and 29 and 30 and 22 and 16
Repetitive behaviors (mice [2]; WT+ANA12): 32 and 20 and 14 and 10 and 7 and 25 and 9 and 18 and 8 and 11 and 13
Repetitive behaviors, Figure S4E (mice [2]; Het+ANA12): 15 and 19 and 11 and 20 and 12 and 38 and 30 and 29 and 18 and 13 and 26 and 32 and 22 and 35
Repetitive behaviors, Figure S4E (mice [2]; WT+ANA12): 12 and 22 and 6 and 30 and 5 and 14 and 8 and 18 and 10 and 16 and 9 and 20 and 17 and 11
NLR (novel location recognition), Figure S4D (mice [3]; Het+ANA12, Test1): -0.13 and 0.49 and 0.11 and 0.03 and 0.36 and -0.0741 and 0.20 and 0.55 and 0.14 and 0.51 and 0.0439 and 0.0756 and 0.45 and 0.32 and -0.03
NLR (novel location recognition), Figure S4D (mice [3]; Het+ANA12, Test2): 0.15 and 0.00112 and 0.11 and 0.43 and 0.18 and -0.10 and 0.51 and 0.26 and -0.18 and 0.30 and 0.00129 and 0.14 and -0.04
NLR (novel location recognition), Figure S4D (mice [3]; WT+ANA12, Test1): 0.36 and 0.47 and 0.12 and 0.06 and 0.23 and 0.50 and 0.35 and 0.32 and -0.035 and 0.43 and 0.37 and -0.09 and 0.25 and 0.51 and -0.07
NLR (novel location recognition), Figure S4D (mice [3]; WT+ANA12, Test2): -0.05 and 0.41 and 0.35 and 0.09 and 0.46 and -0.12 and 0.53 and 0.45 and 0.17 and 0.20 and -0.17 and 0.62 and 0.54
Sociability, Figure S4G (mice [4]; Het+ANA12, Test1): 0.42 and 0.0153 and 0.50 and 0.46 and 0.24 and 0.59 and 0.23 and -0.06 and 0.14 and 0.34 and 0.26 and 0.0119 and 0.40
Social novelty, Figure S4G (mice [4]; Het+ANA12, Test1): 0.24 and 0.45 and 0.21 and -0.09 and -0.20 and 0.40 and 0.11 and -0.13 and 0.0948 and 0.000711 and 0.03 and 0.09 and 0.14 and 0.35
Sociability, Figure S4G (mice [4]; Het+ANA12, Test2): 0.33 and -0.13 and 0.40 and 0.15 and 0.02 and -0.01 and 0.31 and 0.35 and 0.08 and 0.17 and 0.12 and 0.27 and -0.04 and -0.19 and 0.54
Social novelty, Figure S4G (mice [4]; Het+ANA12, Test2): 0.15 and -0.17 and 0.23 and 0.32 and 0.18 and 0.16 and 0.44 and -0.13 and 0.0424 and -0.07 and 0.41 and -0.0144 and 0.06 and 0.0317 and 0.11
Sociability, Figure S4G (mice [4]; WT+ANA12, Test1): 0.72 and 0.46 and 0.41 and 0.66 and 0.61 and 0.33 and 0.44 and 0.36 and 0.55 and -0.10 and 0.22 and -0.13 and 0.11
Social novelty, Figure S4G (mice [4]; WT+ANA12, Test1): 0.05 and 0.43 and 0.53 and -0.13 and 0.39 and 0.40 and 0.32 and 0.62 and 0.44 and 0.33 and -0.01 and 0.18 and 0.61 and -0.10
Sociability, Figure S4G (mice [4]; WT+ANA12, Test2): 0.39 and 0.66 and 0.10 and -0.24 and 0.51 and 0.65 and 0.38 and 0.48 and 0.50 and 0.31 and 0.54 and 0.29 and 0.71 and 0.09 and 0.47
Social novelty, Figure S4G (mice [4]; WT+ANA12, Test2): -0.06 and 0.16 and 0.50 and 0.26 and 0.08 and 0.12 and 0.42 and 0.30 and 0.55 and 0.58 and 0.27 and 0.11 and 0.33

CCN(CC)Cc1cccc(/C=C/c2nc3ccc(F)cc3c(=O)n2-c2ccccc2Cl)n1 [CP-465022, reference compound]
repetitive self-grooming behavior (mice [2]; [6]): without affecting social novelty, recognition memory, and repetitive self-grooming behavior
social affiliation (mice [5]): rapidly promoted social affiliation
recognition memory (mice [3]; [6]): without affecting social novelty, recognition memory
sociability (mice [4]; [6]): rapidly promoted social affiliation and sociability
social novelty (mice [4]; [6]): without affecting social novelty

L1: GST-fused MDGA2 fragment aa 746−786 (FHCGFEDGNICLFTQDDTDNFDWTKQSTATRNTKYTPNTGP; cysteine pairing not given here; also: GST-fused)
interaction with TrkB (GST pull-down) (human TrkB protein): not GST-tagged L1 interacted with TrkB

L2: GST-fused MDGA2 fragment aa 787−833 (NADRSGSKEGFYMYIETSRPRLEGEKARLLSPVFSIAPKNPYGPTNT; also: GST-fused)
interaction with TrkB (GST pull-down) (human TrkB protein): interacted with TrkB

NLGN1 siRNA: NLGN1-targeting siRNA, sense 5′-CCUGUGUGGU-UCACUAAUATT-3′ (sense CCUGUGUGGUUCACUAAUATT; antisense UAUUAGUGAACCACACAGGTT; chemistry not given here)
effect on TrkB signaling pathway (TrkB signaling pathway): treated with either vehicle or NLGN1 siRNA
